Read-outs that look alike come from different tables or passages of the source. Where a SMILES comes first, the peptide text is derived from it. [ ]: non-standard residue; d: D form. The star is where a group is joined. Sta = CC(C)C[C@H](N)[C@@H](O)CC(=O)O; Isovaleryl = CC(C)CC(=O)*
Columns and labels:
[1] = tested on: Delayed-Type Hypersensitivity (DTH) to sheep red blood cells (SRBC); assay: Suppression of delayed-type hypersensitivity (SRBC footpad swelling); type: in vivo, mouse; conditions: for inhibition in vivo at 1 mg: Erythrocyte; for suppression of DTH reaction: anti-inflammatory drugs and protease-inhibitors, 1 mg./mouse
Method: The compounds of Formula (I) show suppression of various delayed-type hypersensitivity. In reference to the method by Lagrange [J. Exp. Med. 139, 528 (1974)], 10^8 sheep red blood cells (SRBC) without adjuvant were subcutaneously injected into the mouse hind footpad to immunize the animal. Four days later the animals were challenged by subcutaneous injection of 10^8 SRBC into another footpad. DTH response was measured as the increase in the thickness of footpad 24 hours after the injection of SRBC.
Varying doses of Compound-1 were administered orally or intraperitoneally either at the time of immunization (day 0) or challenge (day 4).
In FIG. 1 the ordinate indicates the swelling (× 0.1 mm.) of mice footpads on day 5 and the abscissa indicates the dose of Compound-1 per mouse administered by the oral (right) and intraperitoneal (left) routes. Solid line curve indicates the relationship when Compound-1 was administered on day 0 and the dotted line curve indicates the relationship when given on day 4.
The compounds were administered intraperitoneally in a dose 1 mg./mouse at the time of immunization (day 0) or challenge (day 4). Table 1 includes the results of humoral antibody response described later.

[2] = tested on: primary antibody formation to sheep red blood cells (SRBC), spleen cells; assay: Suppression of primary antibody formation (plaque forming cells, Jerne's method); type: in vivo, mice (ddY-strain); conditions: for inhibition in vivo at 1 mg: Erythrocyte, ip, 96 h, read-out: Suppression, Plaque Forming Cells (suppression rate of primary antibody formation)
Method: 10^8 sheep red blood cells (SRBC) were injected intravenously into ddY-strain mice to immunize the animals, when the compounds of Formula (I) were administered intraperitoneally.
Each compound was administered intraperitoneally in the dosage of 1 mg./mouse.

[3] = Acute toxicity, intraperitoneal; conditions: mouse, in vivo, ip, mice, read-out: LD50 (approximate)
Method: Acute toxicological studies were carried out on mice by intraperitoneal administration of the compounds of Formula (I). The approximate LD50 values for representative compounds are given as follows: […]

[4] = tested on: carrageenin-induced edema; conditions: 1 mg./mouse; cited from earlier work
[5] = tested on: passive cutaneous anaphylaxis (PCA); assay: Suppression of passive cutaneous anaphylaxis (PCA); type: in vivo, guinea pigs; conditions: oral 100 mg./kg.; dilution giving a 10 mm. diameter blue zone; control 1060
Method: The compounds of Formula (I) are active in suppressing passive cutaneous anaphylaxis (PCA) in guinea pigs. Guinea pigs received intradarmally serial dilutions of antiserum (0.1 ml.), which was obtained from guinea pigs immunized with a mixture of egg albumin and Freund's complete adjuvant. At the time of sensitization with antiserum, the compound of Formula (I) was administered either orally (100 mg./kg.) or intraperitoneally (50 mg./kg.).
Four hours later the animals were challenged by intravenous injection of a mixture of 5 mg. egg albumin and Evans blue dye. The reaction was measured 30 minutes later by the blue zone which emerged at the point of antiserum injection.

[6] = 96 h, 1 mg./mouse i.p., at challenge (day 4), read-out: Suppression, Delayed-Type Hypersensitivity, Administered at Induction (suppression rate)
[7] = ip, 0 h, 1 mg./mouse i.p., at immunization (day 0), read-out: Suppression, Delayed-Type Hypersensitivity, Administered at Immunization (suppression rate)

Cc1cc(Cl)cc(NC(=O)c2ccccc2O)c1O [Compound 19]
inhibition in vivo at 1 mg [1, 6]: 25 to 50%
inhibition in vivo at 1 mg [1, 7]: 0 to 25%
inhibition in vivo at 1 mg ([2]; 1 mg./mouse i.p.): 25 to 50%
LD50 [3]: 1800 mg/kg

CC(=O)Oc1ccccc1C(=O)Nc1cc(Cl)c(O)c(Cl)c1 [Compound 8]
inhibition in vivo at 1 mg [1, 6]: 0 to 25%
inhibition in vivo at 1 mg [1, 7]: 0 to 25%
inhibition in vivo at 1 mg ([2]; 1 mg./mouse i.p.): 25 to 50%

CC(=O)N[C@@H](CC(C)C)C(=O)N[C@@H](CC(C)C)C(=O)N[C@H](C=O)CCCNC(=N)N [leupeptin, reference compound]
suppression of DTH reaction [1]: little suppression of this DTH reaction
suppression of carrageenin-induced edema [4]: strongly suppress carrageenin-induced edema

CC(=O)Oc1ccccc1C(=O)Nc1cccc(Cl)c1OC(C)=O [Compound 25]
inhibition in vivo at 1 mg [1, 6]: 25 to 50%
inhibition in vivo at 1 mg [1, 7]: 0 to 25%
inhibition in vivo at 1 mg ([2]; 1 mg./mouse i.p.): 50 to 75%
LD50 [3]: 2500 mg/kg

O=C(Nc1ccc(O)c(Cl)c1)c1ccccc1O [Compound 22]
inhibition in vivo at 1 mg [1, 6]: 0 to 25%
inhibition in vivo at 1 mg [1, 7]: 0 to 25%
inhibition in vivo at 1 mg ([2]; 1 mg./mouse i.p.): > 75%

COc1c(F)cc(NC(=O)c2ccc(Cl)cc2O)cc1Cl [Compound 18]
inhibition in vivo at 1 mg [1, 6]: > 75%
inhibition in vivo at 1 mg [1, 7]: 0 to 25%
inhibition in vivo at 1 mg ([2]; 1 mg./mouse i.p.): 25 to 50%

O=C(Nc1cc(Br)c(O)c(Br)c1)c1ccccc1O [Compound-12, 3',5'-Dibromo-2,4'-dihydroxybenzanilide]
inhibition in vivo at 1 mg [1, 6]: 50 to 75%
inhibition in vivo at 1 mg [1, 7]: > 75%
inhibition in vivo at 1 mg ([2]; 1 mg./mouse i.p.): 0 to 25%
LD50 [3]: 1100 mg/kg
Max. Dilution of Antiserum, Oral [5]: 548

O=C(Nc1cc(F)c(O)c(Cl)c1)c1ccccc1O [Compound 17]
inhibition in vivo at 1 mg [1, 6]: > 75%
inhibition in vivo at 1 mg [1, 7]: 0 to 25%
inhibition in vivo at 1 mg ([2]; 1 mg./mouse i.p.): > 75%

O=C(Nc1cc(Cl)c(O)c(Cl)c1)c1ccc(F)cc1O [Compound 10]
inhibition in vivo at 1 mg [1, 6]: > 75%
inhibition in vivo at 1 mg [1, 7]: 0 to 25%
inhibition in vivo at 1 mg ([2]; 1 mg./mouse i.p.): 25 to 50%

CCOc1c(Br)cc(NC(=O)c2ccccc2O)cc1Br [Compound 14]
inhibition in vivo at 1 mg [1, 6]: > 75%
inhibition in vivo at 1 mg [1, 7]: 50 to 75%
inhibition in vivo at 1 mg ([2]; 1 mg./mouse i.p.): 0 to 25%

CCOc1ccc(NC(=O)c2ccc(F)cc2O)cc1 [Compound 31]
inhibition in vivo at 1 mg [1, 6]: > 75%
inhibition in vivo at 1 mg [1, 7]: 0 to 25%
inhibition in vivo at 1 mg ([2]; 1 mg./mouse i.p.): 50 to 75%

Cc1cc(Cl)c(O)c(NC(=O)c2ccccc2O)c1 [Compound 20]
inhibition in vivo at 1 mg [1, 6]: > 75%
inhibition in vivo at 1 mg [1, 7]: 0 to 25%
inhibition in vivo at 1 mg ([2]; 1 mg./mouse i.p.): 50 to 75%

COc1ccc(NC(=O)c2ccc(F)cc2O)cc1 [Compound 28]
inhibition in vivo at 1 mg [1, 6]: > 75%
inhibition in vivo at 1 mg [1, 7]: 0 to 25%
inhibition in vivo at 1 mg ([2]; 1 mg./mouse i.p.): > 75%
LD50 [3]: 2800 mg/kg

CC(=O)Oc1ccccc1C(=O)O [aspirin, reference compound]
suppression of DTH reaction [1]: little suppression of this DTH reaction
suppression of carrageenin-induced edema [4]: strongly suppress carrageenin-induced edema

COc1c(Cl)cc(NC(=O)c2ccccc2O)cc1Cl [Compound 3]
inhibition in vivo at 1 mg [1, 6]: > 75%
inhibition in vivo at 1 mg [1, 7]: 0 to 25%
inhibition in vivo at 1 mg ([2]; 1 mg./mouse i.p.): 50 to 75%

CC(C)C[C@H](NC(=O)[C@@H](NC(=O)N[C@@H](Cc1ccccc1)C(=O)O)[C@@H]1CCN=C(N)N1)C(=O)N[C@H](C=O)Cc1ccccc1 [chymostatin, reference compound]
suppression of DTH reaction [1]: little suppression of this DTH reaction
suppression of carrageenin-induced edema [4]: strongly suppress carrageenin-induced edema

O=C(Nc1cc([N+](=O)[O-])cc([N+](=O)[O-])c1O)c1ccccc1O [Compound 21]
inhibition in vivo at 1 mg ([1]; Mus musculus, 96 h, read-out: Suppression, Delayed-Type Hypersensitivity, Administered at Induction (suppression rate)): > 75%
inhibition in vivo at 1 mg ([1]; Mus musculus, ip, 0 h, read-out: Suppression, Delayed-Type Hypersensitivity, Administered at Immunization (suppression rate)): 50 to 75%
inhibition in vivo at 1 mg ([2]; Mus musculus): 0 to 25%

Cc1ccc(C(=O)Nc2cc(Cl)c(O)c(Cl)c2)c(O)c1 [Compound 11]
inhibition in vivo at 1 mg [1, 6]: 0 to 25%
inhibition in vivo at 1 mg [1, 7]: > 75%
inhibition in vivo at 1 mg ([2]; 1 mg./mouse i.p.): 25 to 50%

COc1ccc(NC(=O)c2ccc(C)cc2O)cc1 [Compound-29, 2-Hydroxy-4-methyl-4'-methoxybenzanilide]
inhibition in vivo at 1 mg [1, 6]: > 75%
inhibition in vivo at 1 mg [1, 7]: 0 to 25%
inhibition in vivo at 1 mg ([2]; 1 mg./mouse i.p.): 25 to 50%
LD50 [3]: 2500 mg/kg

Cc1ccc(C(=O)Nc2cc(Br)c(O)c(Br)c2)c(O)c1 [Compound 16]
inhibition in vivo at 1 mg [1, 6]: > 75%
inhibition in vivo at 1 mg [1, 7]: 50 to 75%
inhibition in vivo at 1 mg ([2]; 1 mg./mouse i.p.): 0 to 25%

O=C(O)COc1c(Cl)cc(NC(=O)c2ccccc2O)cc1Cl [Compound 9]
inhibition in vivo at 1 mg [1, 6]: > 75%
inhibition in vivo at 1 mg [1, 7]: 0 to 25%
inhibition in vivo at 1 mg ([2]; 1 mg./mouse i.p.): 0 to 25%

CC(=O)Oc1ccccc1C(=O)Nc1cc(Cl)c(OC(C)=O)c(Cl)c1 [Compound-4, 2,4'-Diacetoxy-3',5'-dichlorobenzanilide]
inhibition in vivo at 1 mg [1, 6]: > 75%
inhibition in vivo at 1 mg [1, 7]: 0 to 25%
inhibition in vivo at 1 mg ([2]; 1 mg./mouse i.p.): 50 to 75%

O=C(Oc1ccccc1C(=O)Nc1cc(Cl)c(OC(=O)c2ccccc2)c(Cl)c1)c1ccccc1 [Compound 6]
inhibition in vivo at 1 mg [1, 6]: > 75%
inhibition in vivo at 1 mg [1, 7]: 0 to 25%
inhibition in vivo at 1 mg ([2]; 1 mg./mouse i.p.): > 75%
LD50 [3]: 2800 mg/kg

COc1ccc(NC(=O)c2ccccc2O)cc1 [Compound-27, 2-Hydroxy-4'-methoxybenzanilide]
inhibition in vivo at 1 mg [1, 6]: > 75%
inhibition in vivo at 1 mg [1, 7]: 0 to 25%
inhibition in vivo at 1 mg ([2]; 1 mg./mouse i.p.): > 75%
LD50 [3]: > 3000 mg/kg
Max. Dilution of Antiserum, Oral [5]: 284

CC(C)CC(=O)N[C@H](C(=O)N[C@H](C(=O)N[C@@H](CC(C)C)[C@@H](O)CC(=O)N[C@@H](C)C(=O)N[C@@H](CC(C)C)[C@@H](O)CC(=O)O)C(C)C)C(C)C [pepstatin, reference compound] (Isovaleryl-VV[Sta]A[Sta]-OH)
suppression of DTH reaction [1]: little suppression of this DTH reaction
suppression of carrageenin-induced edema [4]: strongly suppress carrageenin-induced edema

CCOc1ccc(NC(=O)c2ccc(F)cc2O)cc1Cl [Compound 24]
inhibition in vivo at 1 mg [1, 6]: 50 to 75%
inhibition in vivo at 1 mg [1, 7]: 0 to 25%
inhibition in vivo at 1 mg ([2]; 1 mg./mouse i.p.): 25 to 50%

O=C(Nc1cc(Br)cc(Br)c1O)c1ccccc1O [Compound 13]
inhibition in vivo at 1 mg [1, 6]: 50 to 75%
inhibition in vivo at 1 mg [1, 7]: 50 to 75%
inhibition in vivo at 1 mg ([2]; 1 mg./mouse i.p.): 0 to 25%
LD50 [3]: 1280 mg/kg

O=C(Nc1cccc(Cl)c1O)c1ccccc1O [Compound 23]
inhibition in vivo at 1 mg [1, 6]: 0 to 25%
inhibition in vivo at 1 mg [1, 7]: 0 to 25%
inhibition in vivo at 1 mg ([2]; 1 mg./mouse i.p.): 50 to 75%
LD50 [3]: 1550 mg/kg

CCC(=O)Oc1ccccc1C(=O)Nc1cc(Br)cc(Br)c1OC(=O)CC [Compound 15]
inhibition in vivo at 1 mg [1, 6]: 50 to 75%
inhibition in vivo at 1 mg [1, 7]: 50 to 75%
inhibition in vivo at 1 mg ([2]; 1 mg./mouse i.p.): 0 to 25%
LD50 [3]: 2200 mg/kg

CCC(=O)Oc1ccccc1C(=O)Nc1cc(Cl)c(OC(=O)CC)c(Cl)c1 [Compound 5]
inhibition in vivo at 1 mg [1, 6]: > 75%
inhibition in vivo at 1 mg [1, 7]: 0 to 25%
inhibition in vivo at 1 mg ([2]; 1 mg./mouse i.p.): 50 to 75%

CC(=O)Oc1ccccc1C(=O)Nc1cc(Cl)cc(Cl)c1OC(C)=O [Compound 7]
inhibition in vivo at 1 mg [1, 6]: > 75%
inhibition in vivo at 1 mg [1, 7]: 0 to 25%
inhibition in vivo at 1 mg ([2]; 1 mg./mouse i.p.): 50 to 75%
LD50 [3]: > 3000 mg/kg

O=C(Nc1ccc(O)cc1)c1ccccc1O [Compound 26]
inhibition in vivo at 1 mg [1, 6]: 50 to 75%
inhibition in vivo at 1 mg [1, 7]: 0 to 25%
inhibition in vivo at 1 mg ([2]; 1 mg./mouse i.p.): 50 to 75%

COc1ccc(NC(=O)c2ccc(C)cc2OC(C)=O)cc1 [Compound 32]
Suppression, Delayed-Type Hypersensitivity, Administered at Induction (suppression rate) ([1]; 1 mg./mouse i.p., at challenge (day 4)): + (25 - 50%+-)
Suppression, Delayed-Type Hypersensitivity, Administered at Immunization (suppression rate) ([1]; 1 mg./mouse i.p., at immunization (day 0)): - (0 - 25% +-)
Suppression, Plaque Forming Cells (suppression rate of primary antibody formation) ([2]; 1 mg./mouse i.p.): - (0 - 25% +-)

Reference: patent publication US4032635A, “Pharmaceutical method for the therapy of immune diseases” (Zaidan Hojin Biseibutsu Kagaku Kenkyu Kai, priority 1975, dated 1977)
